The numbers were not newly measured in the CATMoS acute toxicity set (Mansouri et al. 2021), which cites them from elsewhere.

Values joined by “and” are separate entries in the source; they are usually repeats but may differ in a detail not shown here. Identical values can stand only once.

The series is described as follows: rat acute oral toxicity. The following applies: in vivo.
Consider `CCC1(c2ccccc2)NC(=O)N(C)C1=O` (stereo unspecified), for which the LD50 is 850 mg/kg.
With `CCOC(=O)C(c1c(O)c2ccccc2oc1=O)c1c(O)c2ccccc2oc1=O`, the LD50 is 840 mg/kg.
`C[C@@H]1O[C@@H](O[C@@H]2C=C3CC[C@@H]4[C@H](CC[C@]5(C)[C@@H](c6ccc(=O)oc6)CC[C@]45O)[C@@]3(C)CC2)[C@H](O)[C@H](O)[C@H]1O`: the LD50 was 56 mg/kg.
In the case of `OCC(Cl)CCl` (stereo unspecified), the LD50 was 90 mg/kg.
With `CCCCOC(OCCCC)C(OCCCC)OCCCC`, the LD50 is 8900 mg/kg.
In the case of `COc1ccc2c(c1)OC(C)(C)C(c1ccccc1)C2c1ccc(OCC2CO2)cc1` (stereo unspecified), the LD50 was 800 mg/kg.
Consider `C=C1/C(=C/C=C2/CCC[C@]3(C)[C@@H]([C@H](C)CCCC(C)C)CC[C@@H]23)C[C@@H](O)C[C@@H]1O`, for which the LD50 is 0.34 mg/kg.
As for `O=S(=O)(Cl)CCl`, the LD50 is 372 mg/kg.
As to `O=CNc1ccc(Br)cc1`, the LD50 was 1120 mg/kg.
On to `COP(=O)(OC)OC(C)=CC(=O)OCc1ccccc1`, for which the LD50 is 56 mg/kg.
With `COc1ccc(-c2nc3ccc(C4=NNC(=O)CC4C)cc3[nH]2)cc1` (stereo unspecified), the LD50 is 950 mg/kg.
For the molecule `COC1=CC(=O)OC(C=CC2=CCCC=C2)C1` (stereo unspecified), the LD50 is 16000 mg/kg.
Take `Clc1ccccc1C(c1ccccc1)(c1ccccc1)n1ccnc1`: the LD50 was 708 mg/kg.
In the case of `CC(=O)OCCO`, the LD50 was 8250 mg/kg.
On to `CCC1(CC)Oc2cccc(OC(=O)NC)c2O1`, for which the LD50 was 46 mg/kg.
`CCc1cccc(CC)c1N(CC(=O)O)C(=O)CCl`: the LD50 was 2300 mg/kg.
In the case of `NCCOCCN`, the LD50 was 961 mg/kg.
With `O=C1CCc2cc(C(=O)CCN3CCC(Cc4ccccc4)CC3)ccc2N1`, the LD50 is 500 mg/kg.
Turning to `COP(=O)(OC)SCCSC`, the LD50 was 20 mg/kg.
With `O=S(=O)(O)c1ccccc1`, the LD50 was 2050 mg/kg.
Turning to `COc1cc([N+](=O)[O-])ccc1N`, the LD50 was 997 mg/kg.
As to `CCCCOCCOCCOCCCC`, the LD50 was 3900 mg/kg.
Turning to `CCNC(C)CN1CCc2c(c(=O)oc3ccccc23)C1` (stereo unspecified), the LD50 was 300 mg/kg.
Turning to `CC(C)(CO)C(O)C#N` (stereo unspecified), the LD50 was 310 mg/kg.
On to `Clc1ccc(N2N=N[C@@H]3[C@@H]4C[C@@H]([C@H]5N=N[C@@H]45)[C@@H]32)cc1`, for which the LD50 was 261 mg/kg.
Turning to `CCOP(=S)(OCC)OCCSCC`, the LD50 was 7.5 mg/kg.
In the case of `CCOP(=S)(OCC)SC(CCl)N1C(=O)c2ccccc2C1=O` (stereo unspecified), the LD50 is 5 mg/kg.
On to `O=[N+]([O-])c1cccc2[nH]c(C(F)(F)F)nc12`, for which the LD50 is 10.6 mg/kg.
As for `ClC1=C(Cl)C2(Cl)C3C(Cl)C(Cl)CC3C1(Cl)C2(Cl)Cl` (stereo unspecified), the LD50 is 283 mg/kg.
Turning to `CC(=O)C=Cc1ccc(-c2ccccc2)cc1`, the LD50 is 2230 mg/kg.
As to `CCCCC(CC)COP(=O)(OCC(CC)CCCC)OCC(CC)CCCC` (stereo unspecified), the median lethal dose (LD50) is 37000 mg/kg.
Take `OC(Cn1cncn1)(c1ccc(F)cc1)c1ccccc1F` (stereo unspecified): the LD50 was 1140 mg/kg.
Regarding `CC(COc1ccccc1)N(CCCl)Cc1ccccc1` (stereo unspecified), the LD50 is 2500 mg/kg.
`CSC(C)(C)C=NO`: the LD50 is 742 mg/kg.
Take `CC(=O)OCC(C)O` (stereo unspecified): the LD50 was 18000 mg/kg.
Turning to `CCOc1occ2cnc(C)c(O)c12`, the LD50 was 2150 mg/kg.
For `CCC1(CC)C(=O)C=CN(CN2CCOCC2)C1=O`, the LD50 is 1950 mg/kg.
On to `CN(C)N=Nc1cccnc1`, for which the LD50 is 160 mg/kg.
In the case of `COP(=S)(OC)Oc1ccc2c(C)cc(=O)oc2c1`, the LD50 is 15.6 mg/kg.
As for `CCOC(=O)[C@H](CCc1ccccc1)N[C@@H](C)C(=O)N1Cc2cc(OC)c(OC)cc2C[C@H]1C(=O)O`, the LD50 is 4020 mg/kg.
For `CC(=O)OCC[N+](C)(C)C`, the LD50 was 2500 mg/kg.
In the case of `O=C(O)C(c1ccc(Cl)cc1)c1ccc(Cl)cc1`, the LD50 is 600 mg/kg and 740 mg/kg.
Take `C=C(C)C(=O)OCC`: the LD50 is 14800 mg/kg.
For `O=NN(CCCl)C(=O)NCCS(=O)(=O)NCc1ccccc1`, the LD50 was 250 mg/kg.
Regarding `CCC(C(=O)OCCOCCN(CC)CC)c1ccccc1` (stereo unspecified), the LD50 is 4160 mg/kg.
On to `O=NN1CCOC1`, for which the LD50 was 1500 mg/kg.
As to `CC(C)(C)NCC(O)c1cc(Cl)c(N)c(C(F)(F)F)c1` (stereo unspecified), the LD50 was 306 mg/kg.
Take `CN(C)CCCN1C(=O)c2cc([N+](=O)[O-])ccc2Oc2ccccc21`: the LD50 is 1690 mg/kg.
`CCS(=O)CCOP(=S)(OC)OC` (stereo unspecified): the LD50 was 600 mg/kg.
Consider `C1COCCOCCOCCO1`, for which the LD50 is 2830 mg/kg.
As to `CC(C)CC(C)CC(CC(C)C)OCCO` (stereo unspecified), the LD50 is 5650 mg/kg.
As for `COc1ccccc1C=Nc1ccccc1C(=O)O`, the LD50 was 1500 mg/kg.
As to `COC(=O)CC(SP(=S)(OC)OC)C(=O)OC` (stereo unspecified), the 50% lethal dose (LD50) is 1020 mg/kg.
Turning to `CN(C)c1cccc2nc3cccc([N+](=O)[O-])c3cc12`, the LD50 is 24 mg/kg.
For the molecule `CC(Oc1cccc2ccccc12)C(N)N=O` (stereo unspecified), the LD50 was 108 mg/kg.
With `COC(CC(C)=O)OC`, the LD50 is 6200 mg/kg.
As for `Cc1c(COC(=O)[C@@H]2[C@H](/C=C(\Cl)C(F)(F)F)C2(C)C)cccc1-c1ccccc1` (racemic), the LD50 is 54.5 mg/kg.
`Clc1cn[nH]c1`: the LD50 is 527 mg/kg.
Turning to `CC(O)CC(C)O` (stereo unspecified), the LD50 was 6860 mg/kg.
Turning to `CN(C)C(=O)N(C)N=O`, the LD50 is 240 mg/kg.
For `c1ccc(-n2cnnc2)cc1`, the LD50 is 134 mg/kg.
`CCCCOCCOCCOCOCCOCCOCCCC`: the LD50 is 1750 mg/kg.
On to `COC(=O)c1cccc(N=NN(C)C)c1`, for which the LD50 was 60 mg/kg.
For `Nc1ccc(OCCO)c(N)c1`, the LD50 is 1000 mg/kg.
Turning to `CCn1c2c(c3cc(N)ccc31)CCCC2`, the LD50 is 198 mg/kg.
Turning to `O=C(c1cc2ccccc2o1)N1CCN(Cc2ccccc2)CC1`, the LD50 is 2530 mg/kg.
Take `N#CC(Cl)CCl` (stereo unspecified): the LD50 was 22 mg/kg.
As to `CC1(C)CCC(NC(=O)[C@@H](N)CCC(=O)O)CC1`, the LD50 was 1430 mg/kg.
As to `CC(C)OC(=O)c1cncc(C(=O)OC(C)C)c1`, the LD50 is 5230 mg/kg.
Turning to `CC(C)CNC(=O)NS(=O)(=O)c1ccc(Cl)cc1`, the LD50 was 1100 mg/kg.
In the case of `CC1CCC=C2N(C)C=C(C(=N)O)C(=O)N21` (stereo unspecified), the LD50 was 750 mg/kg.
Regarding `c1ccc([I+]c2ccccc2)cc1`, the LD50 is 60 mg/kg.
In the case of `O=C1c2c(O)ccc(O)c2C(=O)c2c(NCCNCCO)ccc(NCCNCCO)c21`, the LD50 is 682 mg/kg.
Consider `CCOC(=S)C=Cc1ccc(OC)cc1`, for which the LD50 is 930 mg/kg.
As for `FC(F)(F)c1nc2c(Br)cc(Cl)cc2[nH]1`, the LD50 is 7.18 mg/kg.
As to `COC(=O)CC(SP(=O)(OC)OC)C(=O)OC` (stereo unspecified), the LD50 was 103 mg/kg.
In the case of `Cc1nc2ccccc2[se]1`, the median lethal dose (LD50) was 471 mg/kg.
Consider `C=CCOC(Cn1ccnc1)c1ccc(Cl)cc1Cl` (stereo unspecified), for which the LD50 is 227 mg/kg.
As to `COc1ccc(SC#N)c([N+](=O)[O-])c1`, the LD50 is 3540 mg/kg.
Regarding `CCCCc1c(C)nc(NCC)nc1O`, the LD50 was 4000 mg/kg.
With `C=COCCO`, the LD50 is 3910 mg/kg.
Consider `CC1(C)CC(=O)C(N)C(C)(C)N1` (stereo unspecified), for which the LD50 was 920 mg/kg.
With `CC1(C)S[C@@H]2[C@H](NC(=O)COc3ccc(Cl)c(Cl)c3)C(=O)N2[C@H]1C(=O)O`, the LD50 was 2500 mg/kg.
`CC1(C(=O)O)CC=CCC1` (stereo unspecified): the LD50 was 2140 mg/kg.
As for `CC[C@H]1C2C[C@H]3[C@@H]4N(C)c5ccccc5C45C[C@@H](C2[C@H]5O)N3[C@@H]1O` (stereo partly specified), the LD50 was 290 mg/kg.
In the case of `C=C(C)Cn1c(N)cc(=O)n(C)c1=O`, the LD50 was 1560 mg/kg.
For the molecule `Clc1cc(Cl)c(-c2c(Cl)c(Cl)c(-c3c(Cl)cc(Cl)c(Cl)c3Cl)c(Cl)c2Cl)cc1Cl`, the LD50 is 16000 mg/kg.
With `O=C(Oc1ccccc1)c1ccccc1C(=O)Oc1ccccc1`, the LD50 was 8000 mg/kg.
For the molecule `Cc1ccc2ccccc2c1N`, the LD50 was 620 mg/kg.
Consider `Cc1nc(-c2cccnc2)sc1[N+](=O)[O-]`, for which the LD50 was 815 mg/kg.
`CCOC=C(C(=O)OCC)C(=O)OCC`: the LD50 was 925 mg/kg.
As to `CCCC1OCS/C1=N\OC(O)=NC` (stereo unspecified), the LD50 is 83 mg/kg.
`Cc1ccc(C(=O)c2ccccc2)c(C(=O)O)c1`: the LD50 is 5600 mg/kg.
Turning to `CCCCCOc1ccc(Br)cc1COCCN(CC)CC`, the LD50 is 320 mg/kg.
In the case of `CC[C@]1(CO)CCCN2CCc3c([nH]c4ccccc34)[C@@H]21`, the LD50 was 1200 mg/kg.
As for `ClCC(Cl)=C(Cl)C(Cl)Cl`, the LD50 was 472 mg/kg.
As for `NCC(O)CO` (stereo unspecified), the LD50 was 7500 mg/kg.
On to `CCOP(=O)(OCC)ON=C(C1CC1)C1CC1`, for which the LD50 is 7.85 mg/kg.
As to `CC[N+]1(CC)CCC(OC(=O)C(O)(c2ccccc2)c2ccccc2)C1` (stereo unspecified), the LD50 was 760 mg/kg.
In the case of `CSc1nc(-c2ccc(Cl)cc2)n(-c2ccc(Cl)cc2)n1`, the LD50 was 770 mg/kg.
For `CCCCCC1CNC(C(=O)NC(C(C)Cl)C2OC(SC)C(O)C(O)C2O)C1` (stereo unspecified), the LD50 was 1100 mg/kg.
Regarding `CC=CCCCCCCCC(=O)OC`, the LD50 is 3000 mg/kg.
On to `CC(C)C(=O)C(C)C`, for which the LD50 is 3540 mg/kg.
On to `O=C1OC(c2ccc(O)cc2)(c2ccc(O)cc2)c2c(I)c(I)c(I)c(I)c21`, for which the LD50 is 2800 mg/kg.
For `CC(=O)O[C@H]1C[C@@H]2CC[C@@]1(C)C2(C)C`, the LD50 was 9050 mg/kg.
Regarding `COc1ccc2c(-c3ccc(OCC(O)CNC(C)C)cc3)c(-c3ccccc3)c(=O)oc2c1` (stereo unspecified), the LD50 is 1000 mg/kg.
For `CN1CC(O)N(c2nnc(C(C)(C)C)s2)C1=O` (stereo unspecified), the LD50 was 1540 mg/kg.
On to `Cc1cc(Cl)cc2sc(-c3sc4cc(Cl)cc(C)c4c3OS(=O)(=O)O)c(OS(=O)(=O)O)c12`, for which the LD50 was 4360 mg/kg.
`CCN(Cc1ccccc1)N=O`: the LD50 was 250 mg/kg.
Take `O=S1(=O)CCCCO1`: the LD50 was 500 mg/kg.
With `O=C(Nc1ccc(Nc2ccc(NC(=O)c3ccccc3)c3c2C(=O)c2ccccc2C3=O)c2c1C(=O)c1ccccc1C2=O)c1ccccc1`, the LD50 is 19300 mg/kg.
On to `CCCCc1ccc2c(S(=O)(=O)O)cc(CCCC)cc2c1`, for which the LD50 is 1250 mg/kg.
Turning to `CC(=O)CNC(C)(C)Cc1ccccc1`, the LD50 was 225 mg/kg.
Turning to `CC(C)Nc1nc(Cl)nc(NC(C)C)n1`, the LD50 is 3840 mg/kg.
In the case of `CN(C)S(=O)(=O)CCNC(=O)N(CCCl)N=O`, the LD50 was 39 mg/kg.
As for `O=C(NNC1OC(C(=O)O)C(O)C(O)C1O)c1ccncc1` (stereo unspecified), the LD50 was 20300 mg/kg.
On to `N#CCCN1C(=O)C(O)N=C(c2ccccc2F)c2cc(Cl)ccc21` (stereo unspecified), for which the LD50 is 3500 mg/kg.
In the case of `CCCOC(=O)CCC(=O)OCCC`, the LD50 is 6490 mg/kg.
With `CC(=O)NCCO`, the LD50 was 27000 mg/kg.
Turning to `CC[N+](CC)(CC(=O)Nc1c(C)cccc1C)Cc1ccccc1`, the LD50 is 584 mg/kg.
For the molecule `NCCCNCCSP(=O)(O)O`, the LD50 was 826 mg/kg.

As usually defined, the LD50 is the dose at which mortality reaches 50%.
